Experiments:
[1] = Trolox as standard
Method: The skeleton compounds naringenin and apigenin were also evaluated for comparison purposes, and vitamin E analogue Trolox was used as a standard.
The antioxidant potency of target compounds was tested using an oxygen radical absorbance capacity fluorescein (ORAC-FL) assay.

ratAChE = target: T1, ratAChE (Rattus norvegicus, UniProt P37136); experiment: biochemical; conditions: for SI: Selectivity Index = IC50 (BuChE)/IC50 (AChE), rat enzymes; for IC50: from 5% rat cortex homogenate, read-out: IC50 ± SD ratAChE
T1 construct: AChE from 5% rat cortex homogenate or human erythrocytes (Sigma Co.); from tissue; host or cells: 5% rat cortex homogenate
T1 sequence (P37136 32-614): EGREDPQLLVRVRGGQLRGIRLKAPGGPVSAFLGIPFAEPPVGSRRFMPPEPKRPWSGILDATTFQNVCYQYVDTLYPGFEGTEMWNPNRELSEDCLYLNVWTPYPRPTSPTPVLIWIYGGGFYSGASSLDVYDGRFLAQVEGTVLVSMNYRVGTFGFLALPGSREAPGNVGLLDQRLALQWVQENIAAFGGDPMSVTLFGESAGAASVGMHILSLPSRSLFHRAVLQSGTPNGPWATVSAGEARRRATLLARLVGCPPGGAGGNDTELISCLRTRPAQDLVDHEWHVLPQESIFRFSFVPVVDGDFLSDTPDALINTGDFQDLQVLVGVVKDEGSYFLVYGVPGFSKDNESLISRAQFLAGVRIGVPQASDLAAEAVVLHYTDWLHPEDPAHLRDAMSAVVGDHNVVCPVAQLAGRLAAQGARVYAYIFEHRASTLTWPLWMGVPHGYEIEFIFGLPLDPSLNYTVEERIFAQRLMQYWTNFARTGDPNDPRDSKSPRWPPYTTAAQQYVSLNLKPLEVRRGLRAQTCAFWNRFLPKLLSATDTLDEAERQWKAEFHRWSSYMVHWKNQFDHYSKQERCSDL
Method: (§1) The AChE and BuChE inhibitory activities of the synthesised compounds were evaluated using the Ellman assay with slight modification. AChE from 5% rat cortex homogenate or human erythrocytes (Sigma Co.). BuChE from rat serum or human serum (Sigma Co.).

ratBuChE = target: T2, ratBuChE (Rattus norvegicus, UniProt Q9JKC1); experiment: ratBuChE inhibition, modified Ellman's method; type: biochemical
T2 construct: BuChE from rat serum or human serum (Sigma Co.); from tissue; host or cells: rat serum
T2 sequence (Q9JKC1 24-597): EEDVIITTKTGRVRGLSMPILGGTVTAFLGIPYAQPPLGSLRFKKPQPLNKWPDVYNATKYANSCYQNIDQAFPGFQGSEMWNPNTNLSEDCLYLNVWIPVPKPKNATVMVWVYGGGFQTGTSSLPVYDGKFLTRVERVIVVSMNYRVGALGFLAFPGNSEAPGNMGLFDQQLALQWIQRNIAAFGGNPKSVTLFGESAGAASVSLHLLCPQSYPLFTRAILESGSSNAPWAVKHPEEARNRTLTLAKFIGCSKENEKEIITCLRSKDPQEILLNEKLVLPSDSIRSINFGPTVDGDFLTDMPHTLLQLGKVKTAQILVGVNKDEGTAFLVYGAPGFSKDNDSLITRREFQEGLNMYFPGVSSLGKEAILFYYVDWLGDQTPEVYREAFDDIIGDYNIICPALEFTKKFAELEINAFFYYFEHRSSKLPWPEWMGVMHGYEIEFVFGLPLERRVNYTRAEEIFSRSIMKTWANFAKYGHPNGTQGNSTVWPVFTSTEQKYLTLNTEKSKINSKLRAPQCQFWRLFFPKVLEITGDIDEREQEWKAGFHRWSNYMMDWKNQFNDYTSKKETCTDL
Method: as §1

Row | SMILES | ORAC [1] | SI (ratAChE) | IC50 (ratAChE) | IC50 (ratBuChE)
1 | O=C1CC(c2ccc(O)cc2)Oc2cc(OCCCCN3CCCCC3)cc(O)c21 (stereo not shown) [Compound 5a, 5-hydroxy-2–(4-hydroxyphenyl)-7–(4-(piperidin-1-yl)butoxy)chroman-4-one] | 2.2 ± 0.03 μM of Trolox equivalent/μM of tested compound | 3.1 | 6.7 ± 0.31 µM | 20.9 ± 0.68 µM
2 | O=C1CC(c2ccc(O)cc2)Oc2cc(OCCCCN3CCc4ccccc4C3)cc(O)c21 (stereo not shown) [Compound 5b, 7–(4-(3,4-dihydroisoquinolin-2(1H)-yl)butoxy)-5-hydroxy-2–(4-hydroxyphenyl)chroman-4-one] | 2.1 ± 0.04 μM of Trolox equivalent/μM of tested compound | 3.0 | 5.8 ± 0.19 µM | 17.4 ± 0.52 µM
3 | CCN(CCCCOc1cc(O)c2c(c1)OC(c1ccc(O)cc1)CC2=O)Cc1ccccc1 (stereo not shown) [Compound 5c, 7–(4-(benzyl(ethyl)amino)butoxy)-5-hydroxy-2–(4-hydroxyphenyl)chroman-4-one] | 2.3 ± 0.02 μM of Trolox equivalent/μM of tested compound | 5.8 | 3.9 ± 0.44 µM | 22.6 ± 0.23 µM
4 | CCN(CCCCOc1cc(O)c2c(c1)OC(c1ccc(O)cc1)CC2=O)Cc1ccccc1OC (stereo not shown) [Compound 5d, 7–(4-(ethyl(2-methoxybenzyl)amino)butoxy)-5-hydroxy-2–(4-hydroxyphenyl)chroman-4-one] | 2.2 ± 0.02 μM of Trolox equivalent/μM of tested compound | 9.1 | 2 ± 0.46 µM | 18.1 ± 0.56 µM
5 | O=C1CC(c2ccc(O)cc2)Oc2cc(OCCCCN3CCN(Cc4ccccc4)CC3)cc(O)c21 (stereo not shown) [Compound 5e, 7–(4-(4-benzylpiperazin-1-yl)butoxy)-5-hydroxy-2–(4-hydroxyphenyl)chroman-4-one] | 2.5 ± 0.01 μM of Trolox equivalent/μM of tested compound | 1.4 | 9.2 ± 0.72 µM | 13.2 ± 0.43 µM
6 | O=C1CC(c2ccc(O)cc2)Oc2cc(OCCCCCN3CCC(Cc4ccccc4)CC3)cc(O)c21 (stereo not shown) [Compound 5g, 7-((5–(4-benzylpiperidin-1-yl)pentyl)oxy)-5-hydroxy-2–(4-hydroxyphenyl)chroman-4-one] | 2.1 ± 0.02 μM of Trolox equivalent/μM of tested compound | 7.5 | 2.5 ± 0.33 µM | 18.7 ± 0.33 µM
7 | CCN(CCCCCCOc1cc(O)c2c(c1)OC(c1ccc(O)cc1)CC2=O)Cc1ccccc1 (stereo not shown) [Compound 5h, 7-((6-(benzyl(ethyl)amino)hexyl)oxy)-5-hydroxy-2–(4-hydroxyphenyl)chroman-4-one] | 2.3 ± 0.03 μM of Trolox equivalent/μM of tested compound | 4.7 | 3.3 ± 0.09 µM | 15.5 ± 0.52 µM
8 | CCN(CCCCCCCCCCOc1cc(O)c2c(c1)OC(c1ccc(O)cc1)CC2=O)Cc1ccccc1 (stereo not shown) [Compound 5i, 7-((10-(benzyl(ethyl)amino)decyl)oxy)-5-hydroxy-2–(4-hydroxyphenyl)chroman-4-one] | 2.1 ± 0.04 μM of Trolox equivalent/μM of tested compound | 3.0 | 4.9 ± 0.16 µM | 14.7 ± 0.62 µM
9 | CCN(CCCCCCCCCCCCOc1cc(O)c2c(c1)OC(c1ccc(O)cc1)CC2=O)Cc1ccccc1 (stereo not shown) [Compound 5j, 7-((12-(benzyl(ethyl)amino)dodecyl)oxy)-5-hydroxy-2–(4-hydroxyphenyl)chroman-4-one] | 2.2 ± 0.05 μM of Trolox equivalent/μM of tested compound |  | 6.5 ± 0.09 µM | 15.9 ± 0.37 µM
10 | O=C1CC(c2ccc(OCCCN3CCc4ccccc4C3)cc2)Oc2cc(OCCCN3CCc4ccccc4C3)cc(O)c21 (stereo not shown) [Compound 7a, 7–(3-(3,4-dihydroisoquinolin-2(1H)-yl)propoxy)-2–(4-(3–(3,4-dihydroisoquinolin-2(1H)-yl)propoxy)phenyl)-5-hydroxychroman-4-one] | 1.1 ± 0.02 μM of Trolox equivalent/μM of tested compound | 2.0 | 10.1 ± 0.41 µM | 20.2 ± 0.23 µM
11 | CCN(CCCOc1ccc(C2CC(=O)c3c(O)cc(OCCCN(CC)Cc4ccccc4)cc3O2)cc1)Cc1ccccc1 (stereo not shown) [Compound 7b, 7–(3-(benzyl(ethyl)amino)propoxy)-2–(4-(3-(benzyl(ethyl)amino)propoxy)phenyl)-5-hydroxychroman-4-one] | 1.2 ± 0.04 μM of Trolox equivalent/μM of tested compound | 2.5 | 7.4 ± 0.29 µM | 18.7 ± 0.37 µM
12 | O=C1CC(c2ccc(OCCCN3CCC(Cc4ccccc4)CC3)cc2)Oc2cc(OCCCN3CCC(Cc4ccccc4)CC3)cc(O)c21 (stereo not shown) [Compound 7c, 7–(3-(4-benzylpiperidin-1-yl)propoxy)-2–(4-(3–(4-benzylpiperidin-1-yl)propoxy)phenyl)-5-hydroxychroman-4-one] | 1.2 ± 0.02 μM of Trolox equivalent/μM of tested compound | 2.9 | 6.7 ± 0.16 µM | 19.4 ± 0.28 µM
13 | O=C1CC(c2ccc(OCCCN3CCC(c4ccccc4)CC3)cc2)Oc2cc(OCCCN3CCC(c4ccccc4)CC3)cc(O)c21 (stereo not shown) [Compound 7d, 5-hydroxy-7–(3-(4-phenylpiperidin-1-yl)propoxy)-2–(4-(3–(4-phenylpiperidin-1-yl)propoxy)phenyl)chroman-4-one] | 1.0 ± 0.03 μM of Trolox equivalent/μM of tested compound | 2.2 | 9.3 ± 0.37 µM | 20.3 ± 0.26 µM
14 | CCN1CCN(CCCOc2ccc(C3CC(=O)c4c(O)cc(OCCCN5CCN(CC)CC5)cc4O3)cc2)CC1 (stereo not shown) [Compound 7e, 7–(3-(4-ethylpiperazin-1-yl)propoxy)-2–(4-(3–(4-ethylpiperazin-1-yl)propoxy)phenyl)-5-hydroxychroman-4-one] | 1.5 ± 0.02 μM of Trolox equivalent/μM of tested compound | 1.9 | 8.2 ± 0.47 µM | 15.8 ± 0.62 µM
15 | O=C1CC(c2ccc(OCCCCN3CCc4ccccc4C3)cc2)Oc2cc(OCCCCN3CCc4ccccc4C3)cc(O)c21 (stereo not shown) [Compound 7f, 7–(4-(3,4-dihydroisoquinolin-2(1H)-yl)butoxy)-2–(4-(4–(3,4-dihydroisoquinolin-2(1H)-yl)butoxy)phenyl)-5-hydroxychroman-4-one] | 1.1 ± 0.03 μM of Trolox equivalent/μM of tested compound | 3.8 | 5.4 ± 0.16 µM | 20.7 ± 0.55 µM
16 | CCN(CCCCOc1ccc(C2CC(=O)c3c(O)cc(OCCCCN(CC)Cc4ccccc4)cc3O2)cc1)Cc1ccccc1 (stereo not shown) [Compound 7g] | 1.2 ± 0.04 μM of Trolox equivalent/μM of tested compound | 11.2 | 1.4 ± 0.08 µM | 15.7 ± 0.29 µM
17 | CCN(CCCCOc1ccc(C2CC(=O)c3c(O)cc(OCCCCN(CC)Cc4ccccc4OC)cc3O2)cc1)Cc1ccccc1OC (stereo not shown) [Compound 7h, 7–(4-(ethyl(2-methoxybenzyl)amino)butoxy)-2–(4-(4-(ethyl(2-methoxybenzyl)amino)butoxy)phenyl)-5-hydroxychroman-4-one] | 1.0 ± 0.04 μM of Trolox equivalent/μM of tested compound | 19.7 | 0.86 ± 0.05 µM | 16.9 ± 0.34 µM
18 | O=C1CC(c2ccc(OCCCCN3CCC(Cc4ccccc4)CC3)cc2)Oc2cc(OCCCCN3CCC(Cc4ccccc4)CC3)cc(O)c21 (stereo not shown) [Compound 7j] | 1.1 ± 0.03 μM of Trolox equivalent/μM of tested compound | 11.2 | 1.3 µM | 

From publication PMC8881077 (Journal of Enzyme Inhibition and Medicinal Chemistry, 2022)
